According to patent US20260166150A1, “CRYSTAL FORM OF NK3R ANTAGONIST, AND PREPARATION METHOD THEREFOR AND USE THEREOF” (CHANGCHUN GENESCIENCE PHARMACEUTICAL CO., LTD., priority 2022, published 2026):

Tests used:
[1] = molecular target: T1, human NK-3 receptor (Homo sapiens, UniProt P29371); test: Antagonistic activity on human NK-3 receptor, FLIPR calcium assay in stably transfected human NK-3R/HEK293 cells; assay type: cell-based
T1 construct: expressed in transfected cells; host or cells: HEK293 (stably transfected human NK-3R/HEK293)
T1 sequence (P29371 1-465): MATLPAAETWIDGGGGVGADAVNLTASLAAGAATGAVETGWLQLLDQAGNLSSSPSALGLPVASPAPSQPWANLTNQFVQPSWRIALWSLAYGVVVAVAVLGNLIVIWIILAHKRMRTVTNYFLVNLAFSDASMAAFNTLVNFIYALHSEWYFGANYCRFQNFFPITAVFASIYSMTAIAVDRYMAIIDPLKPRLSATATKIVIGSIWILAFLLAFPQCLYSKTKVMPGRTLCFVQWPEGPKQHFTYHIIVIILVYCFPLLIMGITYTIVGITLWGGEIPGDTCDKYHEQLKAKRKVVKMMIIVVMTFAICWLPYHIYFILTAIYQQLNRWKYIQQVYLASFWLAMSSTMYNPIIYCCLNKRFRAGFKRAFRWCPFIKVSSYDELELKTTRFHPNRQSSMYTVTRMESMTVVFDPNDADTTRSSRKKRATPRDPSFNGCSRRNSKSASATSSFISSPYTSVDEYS

[2] = Solid-state stability evaluation (open storage, XRPD and HPLC); assay type: physicochemical
Method: Waters H-Class ultra performance liquid chromatograph is used to collect solubility and purity data of the items.
An appropriate amount of sample was weighed, kept open at 60° C. for 1 day, as well as kept open at 25° C./60% RH and kept open at 40° C./75% RH for 1 week and 4 weeks respectively. Then, the sample was characterized by XRPD and HPLC to detect changes in the crystal form and chemical purity.

[3] = DVS hygroscopicity test at 25° C.; assay type: physicochemical
Method: • DVS curve is collected on DVS Intrinsic of SMS (Surface Measurement Systems) Relative humidity at 25° C. is calibrated based on deliquescent points of LiCl, Mg(NO3)2, and KCl. • Temperature: 25° C.; • Sample amount: 10-20 mg; • Protecting gas and flow rate: N2, 200 mL/min; • dm/dt: 0.002%/min; • Minimum dm/dt equilibration time: 10 min; • Maximum equilibration time: 180 min; • RH range: 0% RH-95% RH-0% RH; • RH gradient: 10% RH (0% RH-90% RH & 90% RH-0% RH); 5% RH (90% RH-95% RH & 95% RH-90% RH)

SMILES	NK-3 receptor antagonism (in words) ([1]; conclusion from IC50 data)	IC50 ([1]; human NK-3R/HEK293 cells, agonist Neurokinin B, FLIPR) [nM]	HPLC Relative purity % ([2]; 25° C./60% RH, 1 week, open) [%]	HPLC purity Area % ([2]; 25° C./60% RH, 1 week, open) [%]	HPLC Relative purity % ([2]; 25° C./60% RH, 4 weeks, open) [%]	HPLC purity Area % ([2]; 25° C./60% RH, 4 weeks, open) [%]	HPLC Relative purity % ([2]; 40° C./75% RH, 1 week, open) [%]	HPLC purity Area % ([2]; 40° C./75% RH, 1 week, open) [%]	HPLC Relative purity % ([2]; 40° C./75% RH, 4 weeks, open) [%]	HPLC purity Area % ([2]; 40° C./75% RH, 4 weeks, open) [%]	change of purity after storage ([2]; 60° C. 1 day, 25° C./60% RH and 40° C./75% RH, 1 week and 4 weeks, open)	HPLC Relative purity % ([2]; 60° C., 1 day, open) [%]	HPLC purity Area % ([2]; 60° C., 1 day, open) [%]	physicochemical stability (in words) ([2]; all evaluated storage conditions)	moisture adsorption ([3]; 25° C./80% RH, DVS)	hygroscopicity (in words) ([3]; DVS, 25° C.)	crystal form before and after DVS testing (XRPD) ([3]; XRPD before and after DVS)
Cc1nsc(-c2nc(N3CCCC3=O)c3n2CCN(C(=O)c2ccc(F)cc2)[C@@H]3C)n1 [Compound represented by formula (I), (R)-1-(7-(4-fluorobenzoyl)-8-methyl-3-(3-methyl-1,2,4-thiadiazol-5-yl)-5,6,7,8-tetrahydroimidazo[1,5-a]pyrazin-1-yl)pyrrolidin-2-one]	potent NK-3 receptor antagonist	12.1															
Cc1nsc(-c2nc(N3CCCC3=O)c3n2CCN(C(=O)c2ccc(F)cc2)[C@@H]3C)n1 [Crystal form A of free base, (R)-1-(7-(4-fluorobenzoyl)-8-methyl-3-(3-methyl-1,2,4-thiadiazol-5-yl)-5,6,7,8-tetrahydroimidazo[1,5-a]pyrazin-1-yl)pyrrolidin-2-one]			99.9	99.48	99.9	99.45	99.9	99.49	99.9	99.49	< 0.2 %, area %	99.9	99.49	good physicochemical stability	about 0.15%	almost non-hygroscopic	did not change in the crystal form
